Data: patent US5726155A, “Regulation of oxidative burst using LMWG-derived peptides and analogs” (The Scripps Research Institute, priority 1993, dated 1998)
Where no end group is shown, it is not given here.

Tests used:
NADPH oxidase [1] = target: T1, NADPH oxidase (Homo sapiens, UniProt P04839+P13498+P14598+P19878); experiment: cell-free NADPH oxidase assay (O2- production), inhibition by peptides; type: biochemical; conditions: for Percent Inhibition: cell-free system; for Inhibitory Activity: Table 3, peptide incubated five minutes before 90 μM SDS or 100 μM arachidonic acid
T1 construct: 4×10^5 cell equivalents (cell eq) of neutrophil membranes; of neutrophil cytosol, or (2) 100 nM each of baculovirus recombinant p47-phox and p67-phox; from tissue; host or cells: neutrophil membranes and cytosol (human neutrophils, leukapheresis or blood)
Method: Production of O2^- by NADPH oxidase may be monitored in a cell-free system at 25° C. by following the superoxide dismutase (SOD)-inhibitable reduction of cytochrome c at […], as described in Curnutte, et al., PNAS USA 86: 825-829 (1989). The method may be described essentially as follows.
Activation of the dormant respiratory burst oxidase in a cell-free system by SDS in the presence of cytosol (or partially-purified cytosol factor components) was monitored by measuring O2^- production by the activated oxidase. O2^- generation was determined by a continuous assay in which superoxide dismutase-inhibitable cytochrome c reduction was followed with time at 25° C. in a double-beam spectrophotometer at 550 nm by a modification of the method described in Curnutte, et al., J. Biol. Chem. 262: 6450-6452 (1987). Assay mixtures contained (final concentration) 0.15 mM cytochrome c, 6.5 mM MgCl2, 87 mM KCl, 2.6 mM NaCl, 8.7 mM PIPES (pH 7.3), 0.27 mM ATP (Sigma), 0.33 mM EGTA, 0.16 mM NADPH, and 0.04 mM SDS, plus 0.9×10^7 cell eq of cytosol and 1.55×10^6 cell eq of membranes solubilized in deoxycholate (0.94 mM) in 375 μl. The reference cuvette also received 22.5 μg of superoxide dismutase. All components except NADPH were mixed in the cuvette and allowed to stand for 3.5 minutes to allow activation of the oxidase by SDS. Reactions were then started with NADPH and followed at 550 nm on a Uvikon 810 dual-beam recording spectrophotometer (Kontron, Zurich). Data were collected on a strip chart recorder and the maximal velocity of the reaction, which occurred during the first 20 sec, was used to calculate the oxidase activity.
A modification of the above-noted method was used for most of the studies described herein and may be summarized as follows. Reaction mixtures (generally, in 96-well microtiter plates) typically contain 0.1 mM cytochrome c, 6.5 mM MgCl2, 87 mM KCl, 2.6 mM NaCl, 8.7 mM PIPES (pH 7.3), 10 μM GTPγS, 0.16 mM NADPH, and 4×10^5 cell equivalents (cell eq) of neutrophil membranes (about 1.6 μg protein), in a total volume of 150 μl. In addition, reactions contain varying amounts of recombinant LMWG protein, and either (1) 8 μl (7.2×10^5 cell eq.; about 18 μg protein) of neutrophil cytosol, or (2) 100 nM each of baculovirus recombinant p47-phox and p67-phox as specified herein. Control wells (paired with each reaction well) contained 9 μg SOD, to account for non-O2^- -dependent reduction of cytochrome c. Superoxide production is initiated by the addition of SDS to give a final concentration of either 90 μM (with recombinant p47-phox/p67-phox) or 110 μM (with neutrophil cytosol). Maximum rates of absorbance change, calculated from the first derivative of the time course using Softmax software (Molecular Devices, release 2.01, Menlo Park, Calif., were converted to nmol O2^- generated/min/10^7 cell eq of membrane, after subtracting the rate achieved in the presence of SOD from that obtained in its absence, to give the rate of O2^- -dependent cytochrome c reduction, by using an extinction coefficient of 20.5 mM^-1 cm^-1 for reduced minus oxidized cytochrome c, a value determined experimentally for the 550±1-nm filter used in the kinetic microplate reader and the path length of the 250-μl reaction mixture. (See, e.g., Curnutte, et al., PNAS USA 86: 825-829 (1989).
Peptides were tested for oxidase inhibiting activity using the cell-free assay of Curnutte, et al. (PNAS USA 86: 825-829 (1989)). Peptides were added at indicated concentrations and incubated for five minutes at room temperature prior to initiation of O2^- formation using either 90 μM SDS or 100 μM arachidonic acid as an activating stimulus.

Rac2 protein = Rac2 protein (Homo sapiens, UniProt P15153); experiment: guanine nucleotide (GDP/GTP) exchange; type: biochemical; conditions: FIG. 4
Rap1A = target: T2, Rap1A (Homo sapiens, UniProt P62834); experiment: guanine nucleotide (GDP/GTP) exchange; type: biochemical
T2 construct: Recombinant full length Rap1a, H-Ras, and CDC42Hs were purified after expression in a baculovirus/Sf9 insect cell system; made in house; host or cells: baculovirus/Sf9 insect cells
T2 sequence (P62834 1-184): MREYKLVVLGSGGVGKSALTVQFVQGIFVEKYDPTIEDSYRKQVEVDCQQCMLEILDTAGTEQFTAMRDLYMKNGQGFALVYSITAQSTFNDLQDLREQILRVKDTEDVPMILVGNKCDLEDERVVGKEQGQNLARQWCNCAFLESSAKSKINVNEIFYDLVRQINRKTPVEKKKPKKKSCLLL

NADPH oxidase [2] = experiment: cell-free NADPH oxidase assay with GAP proteins; type: biochemical, human
Method: Subcellular fractions from human neutrophils for use in cell-free NADPH oxidase assays were prepared as described previously (Curnutte, et al., PNAS USA 86: 825-829 (1989)). Cell-free oxidase assays were conducted as described in Heyworth, et al., Mol. Biol. Cell 4: 261-269 (1993) and Curnutte, et al., Id. (1989). In order to deplete endogenous guanine nucleotides for some experiments, cytosol was dialyzed overnight against three 2-liter volumes of 100 mM KCl/3 mM NaCl/3.5 mM MgCl2 /10 mM PIPES, pH 7.3, as previously described (Peveri, et al., PNAS USA 89: 2494-2498 (1992)). Reaction mixtures contained 4×10^5 cell equivalents (cell eq) of human neutrophil membranes and 1.8×10^6cell eq of neutrophil cytosol. Reactions were performed in the absence of GTPγS, unless otherwise indicated (see FIGS. 3, 7, 8, and 9, and accompanying legends), and with the indicated concentrations of p190 GAP. Rates of O2^- production were calculated from maximum rates of absorbance change after initiation of the reaction with 110 μM SDS.

T1 sequence (P04839 2-570 limits assumed): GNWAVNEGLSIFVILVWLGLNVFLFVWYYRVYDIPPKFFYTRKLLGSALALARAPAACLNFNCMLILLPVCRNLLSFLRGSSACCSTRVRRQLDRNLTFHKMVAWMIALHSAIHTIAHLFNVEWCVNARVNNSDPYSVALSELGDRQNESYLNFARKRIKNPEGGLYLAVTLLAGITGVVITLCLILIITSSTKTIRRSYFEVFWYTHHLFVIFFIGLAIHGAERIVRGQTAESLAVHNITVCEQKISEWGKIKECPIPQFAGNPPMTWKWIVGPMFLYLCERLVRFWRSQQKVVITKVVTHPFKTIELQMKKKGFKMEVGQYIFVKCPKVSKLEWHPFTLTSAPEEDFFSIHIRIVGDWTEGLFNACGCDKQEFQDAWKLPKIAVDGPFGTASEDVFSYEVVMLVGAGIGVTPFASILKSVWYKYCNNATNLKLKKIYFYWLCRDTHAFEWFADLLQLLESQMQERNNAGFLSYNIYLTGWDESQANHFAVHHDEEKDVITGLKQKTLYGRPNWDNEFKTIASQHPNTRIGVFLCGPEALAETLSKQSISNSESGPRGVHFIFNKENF
T1 sequence (P13498 2-195 limits assumed): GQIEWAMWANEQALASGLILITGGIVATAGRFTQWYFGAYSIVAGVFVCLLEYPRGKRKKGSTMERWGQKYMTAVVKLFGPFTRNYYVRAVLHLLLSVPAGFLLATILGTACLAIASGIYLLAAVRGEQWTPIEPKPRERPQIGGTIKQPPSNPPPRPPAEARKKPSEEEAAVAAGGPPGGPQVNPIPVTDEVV
T1 sequence (P14598 whole entry): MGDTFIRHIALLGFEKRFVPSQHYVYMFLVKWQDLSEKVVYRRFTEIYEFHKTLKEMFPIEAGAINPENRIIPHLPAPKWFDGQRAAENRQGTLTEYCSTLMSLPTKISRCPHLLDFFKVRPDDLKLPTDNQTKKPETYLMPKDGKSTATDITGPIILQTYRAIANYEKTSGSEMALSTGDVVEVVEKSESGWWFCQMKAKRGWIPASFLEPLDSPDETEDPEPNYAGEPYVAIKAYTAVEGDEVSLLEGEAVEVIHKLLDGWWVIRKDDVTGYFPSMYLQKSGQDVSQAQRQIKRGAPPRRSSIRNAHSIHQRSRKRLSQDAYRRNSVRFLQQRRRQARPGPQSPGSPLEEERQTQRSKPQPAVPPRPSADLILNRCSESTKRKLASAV
T1 sequence (P19878 whole entry): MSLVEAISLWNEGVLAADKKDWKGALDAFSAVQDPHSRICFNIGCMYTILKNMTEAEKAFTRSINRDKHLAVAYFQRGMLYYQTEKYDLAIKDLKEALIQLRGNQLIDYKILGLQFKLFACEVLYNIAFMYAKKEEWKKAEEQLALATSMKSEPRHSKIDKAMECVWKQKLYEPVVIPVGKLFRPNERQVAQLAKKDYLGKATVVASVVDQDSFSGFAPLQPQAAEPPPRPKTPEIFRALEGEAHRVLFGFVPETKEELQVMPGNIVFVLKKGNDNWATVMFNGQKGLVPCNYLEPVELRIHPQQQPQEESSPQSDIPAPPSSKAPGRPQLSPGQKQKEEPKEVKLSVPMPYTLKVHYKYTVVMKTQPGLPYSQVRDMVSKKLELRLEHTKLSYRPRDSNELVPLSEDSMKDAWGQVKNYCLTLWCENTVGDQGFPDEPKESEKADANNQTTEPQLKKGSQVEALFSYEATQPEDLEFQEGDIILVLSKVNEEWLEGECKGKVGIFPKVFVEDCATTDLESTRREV

Compound | Percent Inhibition (NADPH oxidase [1]; 100 μg/ml peptide) [%] | Inhibitory Activity (NADPH oxidase [1]) | further results
GLTISSLFSRLFGKKQ [ARF 26, GLTISSLFSRLFGKKQ] | 100 |  | Percent Inhibition (NADPH oxidase [1]; 27 μg/ml peptide): 30.9%
EKLKEKKLTPI [Rac1 aa127-137, EKLKEKKLTPI] |  | Inactive | 
LTQRGLKTVFDE [Rac1 aa161-172, LTQRGLKTVFDE] |  | Inactive | 
TISSLFSRLFGKKQ [ARF 27, TISSLFSRLFGKKQ] | 91.3 |  | Percent Inhibition (NADPH oxidase [1]; 27 μg/ml peptide): 55.9%
GLAQKLLEALQKALLA [ICS4, GLAQKLLEALQKALLA] | 99.8 | Active | Percent Inhibition (NADPH oxidase [1]; 27 μg/ml peptide): 86.8%
SSLFSRLFGKKQ [ARF 28, SSLFSRLFGKKQ] | 87.6 |  | Percent Inhibition (NADPH oxidase [1]; 27 μg/ml peptide): 43.5%
PGKARKKSS [Rap1B aa172-180, PGKARKKSS] |  | Active | 
CPPPVKKRKRK [Rac1 aa178-188, CPPPVKKRKRK] |  | Active | 
EKKKPKKKS [Rap1A aa172-180, EKKKPKKKS] |  | Active | 
KNVFDEAILAALEPPEPKKSRR [CDC42Hs] |  | Inactive | 
INLKALAALAKKIL-NH2 [Mastoparan] |  | Active | GDP/GTP exchange on Rac (Rac2 protein): stimulate GDP/GTP exchange; inhibition of NADPH oxidase activity, in words (NADPH oxidase [1]; FIG. 1, dose/response conditions): most dramatic; GDP/GTP exchange on Rap1A (Rap1A): stimulate GDP/GTP exchange
GEHAQKHEQALQKLA [ECG 163, GEHAQKHEQALQKLA, reference compound] | 8.0 | Inactive | Percent Inhibition (NADPH oxidase [1]; 200 μg/ml peptide): 5.1%
MGCTVSAEDKAAAER [Gi #5, MGCTVSAEDKAAAER, reference compound] |  | Inactive | 
GTPγS-bound form of RhoA: recombinant Sf9 cell RhoA bound to GTPγS |  |  | reversal of p190 GAP inhibition of NADPH oxidase by added GTP-binding protein (NADPH oxidase [2]; 280 nM p190 GAP, Rac1.GTPγS 30 nM, RhoA.GTPγS 100 nM, Rac2 (Q61L) 10 nM, FIG. 8): did not reverse inhibition
SKFEDLNKRKDT [Gi #2, SKFEDLNKRKDT, reference compound] |  | Inactive | 
CPQPTRQQKRA [Rac2 aa178-188, CPQPTRQQKRA] |  | Active | 
GELAQKLEQALQKLA [ECG 125, GELAQKLEQALQKLA, reference compound] | 23.3 | Inactive | Percent Inhibition (NADPH oxidase [1]; 200 μg/ml peptide): 34.0%
c1ccc2c(c1)[I+]c1ccccc1-2 [diphenylene iodonium, reference compound] |  |  | inhibition of O2- formation when added after initiation with SDS (NADPH oxidase [2]; added 1.7 or 5 minutes after SDS, p190 GAP 350 nM, DPI 1 μM, FIG. 9): could be inhibited
